Test results from article PMC9223764, “In Vitro Selection and Characterization of HIV-1 Variants with Increased Resistance to LP-40, Enfuvirtide-Based Lipopeptide Inhibitor” (International Journal of Molecular Sciences, 2022).
Like-named read-outs stand apart in the source and are kept apart here. Where a SMILES comes first, the peptide text is derived from it. The star is where a group is joined. Palmitoyl = CCCCCCCCCCCCCCCC(=O)*

How the values were obtained:
Assay type in all cases: cell-based
[1] = test system: LP40-V1 pseudovirus (HIV-1 NL4-3 Env mutant); details: for IC50: LP40-V1 (Env selected at LP-40 0.3 µM), TZM-bl cells, 48 h, luciferase, mean ± SD, triplicate, repeated three times
Procedure: (§1) To simulate the sequence changes of viral resistance genes under different drug concentration pressures, we constructed the Env genes under different drug concentration pressures in the PCDNA3.1 vector and obtained a series of mutations. […] T20-V 6~12, T20-V 13~14, and T 20-V 15~18 were constructed at concentrations of 200 µM (P21), 400 µM (P24), and 2000 µM (P32), respectively. Similarly, the LP-40 pressure concentrations were 0.3 µM, 8 µM, 20 µM, and 200 µM, respectively, and the constructs were numbered LP40-V 1~5, LP40-V 6~8, LP40-V 9~11, and LP40-V 12~15. Resistance mutations will cause varying levels of damage to the function of the pseudoviral envelope proteins. Here, we explored how serial mutations affect the function of viral envelope proteins. Based on this problem, we performed a single round of quantitative P24-infection experiments, packaging the pseudovirus with a previously constructed series of mutant plasmids. We compared the invasion ability of the HIV-1 wild-type and mutant pseudoviruses toward target cells under the same P24 content (using the invasion capacity of each subtype as 100%).
(§2) The infectivity of HIV Env mutants and the inhibitory activities of membrane fusion inhibitors on mutants in TZM-bl cells were measured using a single-cycle infection assay as described previously. Briefly, the HIV pseudovirus was packed using an Env-coding plasmid, and pSG3ΔEnv was co-transfected into HEK293T cells. pSG3ΔEnv encodes an Env-defective, luciferase-expressing HIV-1 genome. After the pseudoviruses were harvested and filtrated, the amount of pseudoviruses was fixed via P24 antigen, and their infectivity was determined in TZM-bl cells. In order to measure the inhibitory activities of the inhibitors, inhibitors diluted serially 3-fold were mixed with an equal volume of pseudoviruses, and then 100 µL 1 × 10^5/mL TZM-bl cells were added to the mixture and incubated at 37 °C with 5% CO2 for 48 h. After that, TZM-bl cells were lysed using reporter lysis buffer, and IC50 values were calculated according to luciferase activity measured by luciferase assay reagents and a luminescence counter (Promega, Madison, WI, USA).

[2] = test system: LP40-V10 pseudovirus (HIV-1 NL4-3 Env mutant); details: for IC50: LP40-V10 (Env selected at LP-40 20 µM), TZM-bl cells, 48 h, luciferase, mean ± SD, triplicate, repeated three times
Procedure: as §1, §2

[3] = test system: LP40-V11 pseudovirus (HIV-1 NL4-3 Env mutant); details: for IC50: LP40-V11 (Env selected at LP-40 20 µM), TZM-bl cells, 48 h, luciferase, mean ± SD, triplicate, repeated three times
Procedure: as §1, §2

[4] = test system: LP40-V12 pseudovirus (HIV-1 NL4-3 Env mutant); details: for IC50: LP40-V12 (Env selected at LP-40 200 µM), TZM-bl cells, 48 h, luciferase, mean ± SD, triplicate, repeated three times
Procedure: as §1, §2

[5] = test system: LP40-V8 pseudovirus (HIV-1 NL4-3 Env mutant); details: for IC50: LP40-V8 (Env selected at LP-40 8 µM), TZM-bl cells, 48 h, luciferase, mean ± SD, triplicate, repeated three times
Procedure: as §1, §2

[6] = test system: T20-V10 pseudovirus (HIV-1 NL4-3 Env mutant); details: for IC50: T20-V10 (Env selected at T20 200 µM, P21), TZM-bl cells, 48 h, luciferase, mean ± SD, triplicate, repeated three times
Procedure: as §1, §2

[7] = test system: T20-V14 pseudovirus (HIV-1 NL4-3 Env mutant); details: for IC50: T20-V14 (Env selected at T20 400 µM, P24), TZM-bl cells, 48 h, luciferase, mean ± SD, triplicate, repeated three times
Procedure: as §1, §2

[8] = test system: T20-V16 pseudovirus (HIV-1 NL4-3 Env mutant); details: for IC50: T20-V16 (Env selected at T20 2000 µM, P32), TZM-bl cells, 48 h, luciferase, mean ± SD, triplicate, repeated three times
Procedure: as §1, §2

[9] = test system: T20-V3 pseudovirus (HIV-1 NL4-3 Env mutant); details: for IC50: T20-V3 (Env selected at T20 12 µM, P9), TZM-bl cells, 48 h, luciferase, mean ± SD, triplicate, repeated three times
Procedure: as §1, §2

[10] = test system: T20-V4 pseudovirus (HIV-1 NL4-3 Env mutant); details: for IC50: T20-V4 (Env selected at T20 12 µM, P9), TZM-bl cells, 48 h, luciferase, mean ± SD, triplicate, repeated three times
Procedure: as §1, §2

[11] = test system: T20-V6 pseudovirus (HIV-1 NL4-3 Env mutant); details: for IC50: T20-V6 (Env selected at T20 200 µM, P21), TZM-bl cells, 48 h, luciferase, mean ± SD, triplicate, repeated three times
Procedure: as §1, §2

[12] = test system: HIV-1 NL4-3 pseudovirus (WT); details: for IC50: WT NL4-3, TZM-bl cells, 48 h, luciferase, triplicate, repeated three times
Procedure: as §2

[13] = test system: LP40-V2 pseudovirus (HIV-1 NL4-3 Env mutant)
Procedure: as §2

| Molecule | IC50 [1] [nM] | IC50 [2] [nM] | IC50 [3] [nM] | IC50 [4] [nM] | IC50 [5] [nM] | IC50 [6] [nM] | IC50 [7] [nM] | IC50 [8] [nM] | IC50 [9] [nM] | IC50 [10] [nM] | IC50 [11] [nM] | other results |
| --- | --- | --- | --- | --- | --- | --- | --- | --- | --- | --- | --- | --- |
| CCCCCCCCCCCCCCCC(=O)NCCCC[C@H](NC(=O)[C@H](CC(=O)O)NC(=O)[C@H](CC(C)C)NC(=O)[C@H](CCC(=O)O)NC(=O)[C@H](CC(C)C)NC(=O)[C@H](CC(C)C)NC(=O)[C@H](CCC(=O)O)NC(=O)[C@H](CCC(N)=O)NC(=O)[C@H](CCC(=O)O)NC(=O)[C@H](CC(N)=O)NC(=O)[C@H](CCCCN)NC(=O)[C@H](CCC(=O)O)NC(=O)[C@H](CCC(N)=O)NC(=O)[C@H](CCC(N)=O)NC(=O)[C@H](CC(N)=O)NC(=O)[C@H](CCC(N)=O)NC(=O)[C@H](CO)NC(=O)[C@H](CCC(=O)O)NC(=O)[C@H](CCC(=O)O)NC(=O)[C@@H](NC(=O)[C@H](CC(C)C)NC(=O)[C@H](CO)NC(=O)[C@H](Cc1c[nH]cn1)NC(=O)[C@@H](NC(=O)[C@H](CC(C)C)NC(=O)[C@H](CO)NC(=O)[C@@H](NC(=O)[C@H](Cc1ccc(O)cc1)NC(C)=O)[C@@H](C)O)[C@@H](C)CC)[C@@H](C)CC)C(N)=O [LP-40] (Ac-YTSLIHSLIEESQNQQEKNEQELLELDK(Palmitoyl)-NH2) | 44.9 ± 4.39 | 2750 ± 634 | 3330 ± 978 | > 6250 | 2880 ± 1070 | 6080 ± 1170 | 2900 ± 85.1 | > 6250 | 70.5 ± 8.56 | 76.6 ± 19.7 | 3510 ± 631 | Fold change in IC50 ([1]; LP40-V1 relative to WT NL4-3, Table 1): 1.51 fold; Fold change in IC50 ([2]; LP40-V10 relative to WT NL4-3, Table 1): 92.52 fold; Fold change in IC50 ([3]; LP40-V11 relative to WT NL4-3, Table 1): 112.32 fold; Fold change in IC50 ([4]; LP40-V12 relative to WT NL4-3, Table 1): >227.43 fold; Fold change in IC50 ([5]; LP40-V8 relative to WT NL4-3, Table 1): 97.17 fold; Fold change in IC50 ([6]; T20-V10 relative to WT NL4-3, Table 1): 204.88 fold; Fold change in IC50 ([7]; T20-V14 relative to WT NL4-3, Table 1): 97.57 fold; Fold change in IC50 ([8]; T20-V16 relative to WT NL4-3, Table 1): >227.43 fold; Fold change in IC50 ([9]; T20-V3 relative to WT NL4-3, Table 1): 2.38 fold; Fold change in IC50 ([10]; T20-V4 relative to WT NL4-3, Table 1): 2.58 fold; Fold change in IC50 ([11]; T20-V6 relative to WT NL4-3, Table 1): 118.37 fold; IC50 ([12]; Table 1, mean ± SD): 29.7 ± 4.52 nM; IC50 ([12]; Table 2, mean ± SD): 31.5 ± 10.4 nM; IC50 ([12]; Table 3, means): 27.3 nM; Fold change in IC50 ([12]; WT NL4-3 reference, Table 1): 1.00 fold; IC50 ([13]; LP40-V2 (Env selected at LP-40 0.3 µM), TZM-bl cells, 48 h, luciferase, mean ± SD, triplicate, repeated three times): 374 ± 29.8 nM; Fold change in IC50 ([13]; LP40-V2 relative to WT NL4-3, Table 1): 12.59 fold |
| Enfuvirtide | 59.8 ± 16.3 | 1260 ± 264 | 4350 ± 522 | 5870 ± 978 | 1150 ± 137 | 3340 ± 433 | 4430 ± 967 | 1740 ± 229 | 78.9 ± 12.1 | 53.1 ± 14.9 | 3850 ± 516 | – |
